Here are results for two molecules from PMC5584945, “Evaluation of robenidine analog NCL195 as a novel broad-spectrum antibacterial agent” (PLoS ONE, 2017).

For experiment [1], the system named is S. aureus. Description: MIC, broth micro-dilution (CLSI). The class given is cell-based, Staphylococcus aureus. To be noted: Staphylococcus aureus; for MIC: read-out: MIC. Background: Dilution methods test growth across graded concentrations, often in twofold steps.
The test system of experiment [2] is Enterococcus faecalis ATCC 29212. The experiment in a line: MIC, broth micro-dilution (CLSI), control strain. It is filed as cell-based. As for the experimental part:
MICs for NCL812 and its analogs (serial two-fold dilutions commencing at 128 μg/ml) were determined (in duplicate) in round bottom 96-well microtitre trays (Sarstedt 82.1582.001), using the broth micro-dilution method recommended by the Clinical and Laboratory Standards Institute (CLSI). […] MIC50, MIC90 and MIC range for NCL812, NCL195 and NCL219 were calculated against each S. pneumoniae, S. aureus or VRE isolate. To assess the potential activity of NCL195 against Gram-negative bacteria, MICs against Acinetobacter spp, E. coli, K. pneumoniae, P. aeruginosa, Proteus spp and Neisseria meningitidis were performed in the presence or absence of 0.08 mM-20 mM EDTA in a standard checkerboard assay.

Where [3] appears, read: ATCC 29213 / MSSA, ATCC29213 MSSA (ST5), absence of FBS.
Where [4] appears, read: IRISH 1 – HA-EMRSA (ST8), absence of FBS.
[5] abbreviates: IRISH 2 – HA-EMRSA (ST8), absence of FBS.
[6] abbreviates: MRSA / USA300, USA 300 - MRSA (ST8), absence of FBS.
Setting [7] is: MRSA, AUS2-MRSA (ST239), absence of FBS.
The mark [8] stands for this setting: MRSA, AUS3-MRSA (ST239), absence of FBS.
The mark [9] stands for this setting: MRSA, BENGAL BAY PVL+ – CA-MRSA (ST772), absence of FBS.
Where [10] appears, read: MRSA, Classic–HA-MRSA (ST250), absence of FBS.
[11] abbreviates: MRSA, NY JAPAN – HA MRSA (ST5), absence of FBS.
Where [12] appears, read: MRSA, QLD PVL+ –CA-MRSA (ST93), absence of FBS.
The mark [13] stands for this setting: MRSA, ST398–CA-MRSA-V (ST398), absence of FBS.
The mark [14] stands for this setting: MRSA, WSPP – PVL neg CA MRSA (ST30), absence of FBS.
Setting [15] is: S2 Table isolates, absence of FBS.
Setting [16] is: TAIWAN PVL+ – CA-cMRSA (ST59), absence of FBS.
Setting [17] is: UK 15 PVL+ – HA-EMRSA (ST22), absence of FBS.
The mark [18] stands for this setting: UK 15 – HA-EMRSA (ST22), absence of FBS.
[19] abbreviates: UK 16 – HA- EMRSA (ST36), absence of FBS.
Setting [20] is: UK 17 – HA-EMRSA (ST247), absence of FBS.

Broadly, the MIC90 is the lowest concentration that inhibits either 90% of growth or 90% of the strains tested, depending on the study. Broadly, the MIC is the lowest concentration that inhibits growth of the organism. As a reminder, the MIC50 is an inhibitory concentration at the 50% level, which refers to growth in some studies and to a panel of isolates in others.

≈ marks a conversion by molar mass, not a printed value. Read-outs that look alike come from different tables or passages of the source.

Regarding `CCCCCCCCCC(=O)N[C@@H](Cc1c[nH]c2ccccc12)C(=O)N[C@H](CC(N)=O)C(=O)N[C@@H](CC(=O)O)C(=O)N[C@@H]1C(=O)NCC(=O)N[C@@H](CCCN)C(=O)N[C@@H](CC(=O)O)C(=O)N[C@H](C)C(=O)N[C@@H](CC(=O)O)C(=O)NCC(=O)N[C@H](CO)C(=O)N[C@@H]([C@H](C)CC(=O)O)C(=O)N[C@@H](CC(=O)c2ccccc2N)C(=O)O[C@@H]1C` [Daptomycin, daptomycin], the MIC90 in experiment [1] (23 isolates) and in experiment [1] (setting [15]) was 0.5 µg/mL (≈ 0.309 µM) in each case. The minimal inhibitory concentration (MIC) in experiment [1] (ATCC 12600 / MSSA, ATCC12600 [Xen29] (MSSA), 10% FBS) is 0.5 µg/mL (≈ 0.309 µM); in experiment [1] (ATCC 12600 / MSSA, ATCC12600 [Xen29] (MSSA), absence of FBS), 0.5 µg/mL (≈ 0.309 µM); in experiment [1] (setting [3]) it was 0.5 µg/mL (≈ 0.309 µM); in experiment [1] (ATCC 49775 / MSSA, ATCC 49775 (MSSA), absence of FBS) it was 0.5 µg/mL (≈ 0.309 µM); in experiment [1] (setting [4]) it was 0.5 µg/mL (≈ 0.309 µM); in experiment [1] (setting [5]), 0.5 µg/mL (≈ 0.309 µM). Further, the MIC amounted to 0.5 µg/mL (≈ 0.309 µM) in experiment [1] (setting [6]); 1 µg/mL (≈ 0.617 µM) in experiment [1] (setting [7]); 0.5 µg/mL (≈ 0.309 µM) in experiment [1] (setting [8]); 0.5 µg/mL (≈ 0.309 µM) in experiment [1] (setting [9]); 0.5 µg/mL (≈ 0.309 µM) in experiment [1] (setting [10]); 0.5 µg/mL (≈ 0.309 µM) in experiment [1] (setting [11]). Also, the minimal inhibitory concentration (MIC) in experiment [1] (setting [12]) was 0.25 µg/mL (≈ 0.154 µM); in experiment [1] (setting [13]) it was 0.5 µg/mL (≈ 0.309 µM); in experiment [1] (setting [14]), 0.5 µg/mL (≈ 0.309 µM); in experiment [1] (setting [16]), 0.5 µg/mL (≈ 0.309 µM); in experiment [1] (setting [17]), 0.5 µg/mL (≈ 0.309 µM); in experiment [1] (setting [18]) it was 0.5 µg/mL (≈ 0.309 µM). The MIC in experiment [1] (setting [19]) was 0.5 µg/mL (≈ 0.309 µM); in experiment [1] (setting [20]) it was 0.5 µg/mL (≈ 0.309 µM); in experiment [2] (ATCC29212, 10% FBS), 2 µg/mL; in experiment [2] (ATCC29212, absence of FBS), 2 µg/mL. Moreover, the MIC50 in experiment [1] (setting [15]) stood at 0.5 µg/mL (≈ 0.309 µM).

For `CC1(C)S[C@@H]2[C@H](NC(=O)[C@H](N)c3ccccc3)C(=O)N2[C@H]1C(=O)O` [Ampicillin], the MIC90 in experiment [1] (23 isolates) and in experiment [1] (setting [15]) was more than 16 µg/mL in each case. Besides, the MIC in experiment [1] (setting [3]) is 2 µg/mL (≈ 5.72 µM); in experiment [1] (setting [4]), more than 16 µg/mL; in experiment [1] (setting [5]) it was more than 16 µg/mL; in experiment [1] (setting [6]) it was more than 16 µg/mL; in experiment [1] (setting [7]), more than 16 µg/mL; in experiment [1] (setting [8]) it was more than 16 µg/mL. Also, the minimum inhibitory concentration (MIC) in experiment [1] (setting [9]) is 8 µg/mL (≈ 22.9 µM); in experiment [1] (setting [10]), more than 16 µg/mL; in experiment [1] (setting [11]) it was more than 16 µg/mL; in experiment [1] (setting [12]), more than 16 µg/mL; in experiment [1] (setting [13]), more than 16 µg/mL; in experiment [1] (setting [14]) it was more than 16 µg/mL. Besides, the MIC in experiment [1] (setting [16]) was 8 µg/mL (≈ 22.9 µM); in experiment [1] (setting [17]), 16 µg/mL (≈ 45.8 µM); in experiment [1] (setting [18]), more than 16 µg/mL; in experiment [1] (setting [19]) it was more than 16 µg/mL; in experiment [1] (setting [20]), more than 16 µg/mL; in experiment [2] (ATCC29212, absence of FBS), 2 µg/mL. In experiment [1] (setting [15]), this molecule came in with an MIC50 of more than 16 µg/mL.
